Literature values, collected in patent publication US6955904B2, “Gene coding for quinone oxidoreductase of kluyveromyces marxianus and protein expressed therefrom” (Korea Institute of Science and Technology, priority 2001, dated 2005).

Assays:
[1] = target: T1, Arabidopsis thaliana quinone oxidoreductases (Arabidopsis thaliana, UniProt Q9LK88); conditions: Sparla et al., FEBS Letters 1999
T1 sequence (Q9LK88 1-196): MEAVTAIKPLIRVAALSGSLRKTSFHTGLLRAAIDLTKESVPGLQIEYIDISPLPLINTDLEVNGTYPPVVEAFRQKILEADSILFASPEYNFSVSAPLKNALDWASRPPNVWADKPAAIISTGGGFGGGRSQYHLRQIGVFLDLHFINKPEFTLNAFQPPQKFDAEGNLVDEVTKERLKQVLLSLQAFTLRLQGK

[2] = target: human quinone oxidoreductase (Homo sapiens, UniProt P15559); conditions: Siegel et al., Mol. Pharmacol. 1997
Chain of human quinone oxidoreductase (P15559 whole entry): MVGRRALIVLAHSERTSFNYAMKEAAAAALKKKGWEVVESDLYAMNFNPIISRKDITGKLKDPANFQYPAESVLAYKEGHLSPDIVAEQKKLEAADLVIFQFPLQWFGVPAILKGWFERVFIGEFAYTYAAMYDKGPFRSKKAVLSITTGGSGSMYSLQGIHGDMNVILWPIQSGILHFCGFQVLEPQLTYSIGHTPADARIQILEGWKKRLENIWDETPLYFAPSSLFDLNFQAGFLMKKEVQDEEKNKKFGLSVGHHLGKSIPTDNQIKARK

| SMILES | rate constant for the reaction [1] | rate constant for the reaction [2] |
| --- | --- | --- |
| CC1=C(C)C(=O)C(C)=C(C)C1=O [duroquinone] | 3.2×10^7 M^−1m^−1 | – |
| CC1=C(C)C(=O)C(CC[C@](C)(O)CCC[C@H](C)CCC[C@H](C)CCCC(C)C)=C(C)C1=O [α-tocopherol quinone] | – | 1.5×10^7 M^−1m^−1 |
